From patent US20240360134A1, “PYRAZOLOPYRIMIDINES AND THEIR USES AS PDGFR INHIBITORS” (priority 2021, published 2024)

Tests used:
[1] = molecular target: Tb-labeled inactive PDGFRβ (Homo sapiens (Human), UniProt P09619); experiment: biochemical; type: binding; settings: read-out: PDGFR Lantha IC50
PDGFRβ = PDGFRβ (Rattus norvegicus (Rat), UniProt Q05030); experiment: PDGFRβ Cellular Assay (PDGFRb P-Y751 HTRF, PDGF-BB stimulated A10 cells); type: cell-based; settings: A10 cells, 3 hours compound, 15 ng/mL PDGFbb for 10 minutes; read-out: PDGFR Cellular IC50
Method in brief: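 Rat A10 cells plated overnight were treated with compound for 3 h, stimulated with rat PDGF-BB (working stock 100 ng/mL in 10% FBS medium) for 10 min, then lysed.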

VEGFR2, unphosphorylated = VEGFR2, unphosphorylated (Homo sapiens (Human), UniProt P35968); experiment: VEGFR ADP GLO assay; type: biochemical; settings: 5 nM VEGFR2, 1.2 mM ATP, 1 mg/mL Srctide, 180 min
Method in brief: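 Unphosphorylated kinase (10 nM 2× solution) pre-incubated 30 min at RT with compounds (11-point, 3-fold, top 10 µM), then reacted 180 min with srctide and ATP (2×: 2 mg/mL, 2.4 mM) in HEPES pH 7.5 buffer. ADP read by luminescence. IC50 from 4-parameter fit, normalized to DMSO and 1 µM TAK-593.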

[2] = molecular target: His6-TEV-PDGFRβ (557-1016) (Homo sapiens (Human), UniProt P09619); experiment: PDGFRβ HTRF Assay; type: biochemical; settings: 800 μM ATP, 0.5 μM TK-substrate biotin peptide, 30 min pre-incubation, 3 hours reaction; read-out: PDGFR HTRF IC50
His6-TEV-PDGFRβ (557-1016), sequence (P09619 whole entry, looked up): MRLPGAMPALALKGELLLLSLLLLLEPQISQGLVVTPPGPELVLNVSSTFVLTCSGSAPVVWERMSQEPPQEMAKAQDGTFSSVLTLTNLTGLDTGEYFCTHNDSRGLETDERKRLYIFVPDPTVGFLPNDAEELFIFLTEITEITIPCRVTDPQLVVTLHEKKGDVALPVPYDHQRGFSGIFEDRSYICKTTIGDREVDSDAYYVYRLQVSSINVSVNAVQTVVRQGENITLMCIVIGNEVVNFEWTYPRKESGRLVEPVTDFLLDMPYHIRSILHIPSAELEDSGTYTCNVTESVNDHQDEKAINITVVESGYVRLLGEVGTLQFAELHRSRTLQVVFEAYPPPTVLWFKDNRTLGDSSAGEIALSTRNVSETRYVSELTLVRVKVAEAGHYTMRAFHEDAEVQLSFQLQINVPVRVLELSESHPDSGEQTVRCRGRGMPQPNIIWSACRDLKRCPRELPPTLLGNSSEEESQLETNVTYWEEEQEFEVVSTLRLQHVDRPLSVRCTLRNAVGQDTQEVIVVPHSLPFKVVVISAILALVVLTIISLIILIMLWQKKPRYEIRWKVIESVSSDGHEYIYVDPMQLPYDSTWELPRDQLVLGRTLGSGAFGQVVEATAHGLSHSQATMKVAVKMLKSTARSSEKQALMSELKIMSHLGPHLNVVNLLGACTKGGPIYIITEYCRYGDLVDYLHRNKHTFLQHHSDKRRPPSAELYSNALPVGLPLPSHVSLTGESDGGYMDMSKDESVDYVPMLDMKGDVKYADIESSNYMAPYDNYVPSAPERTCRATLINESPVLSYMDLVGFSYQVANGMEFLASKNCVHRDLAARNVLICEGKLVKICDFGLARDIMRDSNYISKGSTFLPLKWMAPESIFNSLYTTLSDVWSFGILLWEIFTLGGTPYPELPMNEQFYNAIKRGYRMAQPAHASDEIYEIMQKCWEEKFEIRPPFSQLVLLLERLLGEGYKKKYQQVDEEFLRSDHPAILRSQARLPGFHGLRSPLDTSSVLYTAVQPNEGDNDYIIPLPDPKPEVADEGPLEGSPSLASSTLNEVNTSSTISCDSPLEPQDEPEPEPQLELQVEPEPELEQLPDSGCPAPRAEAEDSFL

Tb-labeled inactive PDGFRβ, sequence (P09619 whole entry, looked up): as above
VEGFR2, unphosphorylated, sequence (P35968 whole entry, looked up): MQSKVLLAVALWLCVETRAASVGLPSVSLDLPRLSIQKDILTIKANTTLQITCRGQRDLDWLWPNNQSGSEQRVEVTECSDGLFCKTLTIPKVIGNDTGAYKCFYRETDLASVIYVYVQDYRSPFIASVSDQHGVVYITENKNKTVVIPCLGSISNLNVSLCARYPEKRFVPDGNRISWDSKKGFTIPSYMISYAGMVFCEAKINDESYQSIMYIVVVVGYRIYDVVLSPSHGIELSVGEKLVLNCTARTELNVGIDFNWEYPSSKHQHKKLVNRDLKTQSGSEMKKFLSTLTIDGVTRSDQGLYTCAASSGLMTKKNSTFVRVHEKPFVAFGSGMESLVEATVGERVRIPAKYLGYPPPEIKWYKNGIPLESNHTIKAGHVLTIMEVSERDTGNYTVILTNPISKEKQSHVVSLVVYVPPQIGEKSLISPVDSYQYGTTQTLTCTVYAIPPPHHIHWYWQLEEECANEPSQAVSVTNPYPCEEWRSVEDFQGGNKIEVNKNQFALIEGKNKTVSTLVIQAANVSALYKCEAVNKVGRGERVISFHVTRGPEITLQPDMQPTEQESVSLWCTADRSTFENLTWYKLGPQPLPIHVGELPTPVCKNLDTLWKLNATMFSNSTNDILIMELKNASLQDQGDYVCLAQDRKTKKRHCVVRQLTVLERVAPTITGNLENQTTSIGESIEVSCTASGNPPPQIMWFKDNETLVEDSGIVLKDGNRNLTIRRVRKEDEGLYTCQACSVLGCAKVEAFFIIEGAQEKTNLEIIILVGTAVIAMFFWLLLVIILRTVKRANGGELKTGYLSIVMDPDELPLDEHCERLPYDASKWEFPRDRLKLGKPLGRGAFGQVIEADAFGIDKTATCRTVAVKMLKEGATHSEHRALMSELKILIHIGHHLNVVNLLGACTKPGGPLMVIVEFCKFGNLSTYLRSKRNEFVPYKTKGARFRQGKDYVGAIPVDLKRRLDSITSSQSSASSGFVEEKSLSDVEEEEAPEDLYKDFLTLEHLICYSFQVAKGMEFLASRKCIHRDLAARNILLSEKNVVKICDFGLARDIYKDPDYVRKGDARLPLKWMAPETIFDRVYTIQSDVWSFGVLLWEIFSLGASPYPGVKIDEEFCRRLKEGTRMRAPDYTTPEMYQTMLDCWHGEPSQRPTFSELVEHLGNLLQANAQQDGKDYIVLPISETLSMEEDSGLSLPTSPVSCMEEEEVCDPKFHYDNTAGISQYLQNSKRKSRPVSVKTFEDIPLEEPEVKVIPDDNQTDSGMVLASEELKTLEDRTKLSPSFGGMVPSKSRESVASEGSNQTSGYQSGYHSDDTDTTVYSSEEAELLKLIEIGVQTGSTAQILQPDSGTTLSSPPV
PDGFRβ, sequence (Q05030 whole entry, looked up): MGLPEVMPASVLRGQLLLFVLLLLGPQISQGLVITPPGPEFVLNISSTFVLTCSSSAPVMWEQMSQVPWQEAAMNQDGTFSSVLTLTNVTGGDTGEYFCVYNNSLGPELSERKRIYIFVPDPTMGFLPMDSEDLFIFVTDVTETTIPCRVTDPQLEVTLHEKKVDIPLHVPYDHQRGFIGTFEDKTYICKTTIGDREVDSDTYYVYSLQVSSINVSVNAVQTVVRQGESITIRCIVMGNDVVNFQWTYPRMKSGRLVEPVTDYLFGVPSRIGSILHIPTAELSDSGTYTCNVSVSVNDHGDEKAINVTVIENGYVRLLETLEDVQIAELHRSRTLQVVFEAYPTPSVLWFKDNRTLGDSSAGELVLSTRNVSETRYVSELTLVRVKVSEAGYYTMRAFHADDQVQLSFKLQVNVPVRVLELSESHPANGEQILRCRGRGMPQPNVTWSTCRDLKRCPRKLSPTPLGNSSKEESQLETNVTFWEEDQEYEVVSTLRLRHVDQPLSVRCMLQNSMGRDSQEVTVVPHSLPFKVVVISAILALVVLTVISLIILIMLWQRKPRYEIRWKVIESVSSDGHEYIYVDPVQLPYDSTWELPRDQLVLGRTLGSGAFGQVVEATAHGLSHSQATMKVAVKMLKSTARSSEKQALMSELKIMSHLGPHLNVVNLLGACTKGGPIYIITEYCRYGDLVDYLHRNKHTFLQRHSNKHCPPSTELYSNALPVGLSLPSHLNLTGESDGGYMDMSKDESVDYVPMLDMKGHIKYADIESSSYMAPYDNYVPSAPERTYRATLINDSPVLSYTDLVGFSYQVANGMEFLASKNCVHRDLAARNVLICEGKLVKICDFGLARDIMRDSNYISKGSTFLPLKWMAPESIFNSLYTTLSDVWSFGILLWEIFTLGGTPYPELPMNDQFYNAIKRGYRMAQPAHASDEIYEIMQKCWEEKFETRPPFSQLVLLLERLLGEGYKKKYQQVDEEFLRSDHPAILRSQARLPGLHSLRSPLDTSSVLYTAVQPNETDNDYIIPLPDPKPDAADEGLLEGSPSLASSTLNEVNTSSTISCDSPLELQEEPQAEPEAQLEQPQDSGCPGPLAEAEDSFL

Compound	IC50 [1]	IC50 (PDGFRβ)	IC50 (VEGFR2, unphosphorylated)	IC50 [2]
Cc1ncc(C(=O)NCCN2CCCC2(C)C)cc1Nc1nn(C)c2nc(Nc3ccnn3C)ncc12 [Example 157, N-(2-(2,2-dimethylpyrrolidin-1-yl)ethyl)-6-methyl-5-((1-methyl-6-((1-methyl-1H-pyrazol-5-yl)amino)-1H-pyrazolo[3,4-d]pyrimidin-3-yl)amino)nicotinamide]	32.9 nM	110 nM	> 7500 nM	3.39 nM
Cc1ncc(C(=O)NCCN2C[C@H](C)O[C@@H](C)C2)cc1Nc1nn(C)c2nc(Nc3ccncc3)ncc12 [Example 115, N-(2-((2S,6S)-2,6-dimethylmorpholino)ethyl)-6-methyl-5-((1-methyl-6-(pyridin-4-ylamino)-1H-pyrazolo[3,4-d]pyrimidin-3-yl)amino)nicotinamide]	3.9 nM	20.6 nM	> 7500 nM	0.48 nM
Cc1ncc(C(=O)NCCN(CCF)C2CCCC2)cc1Nc1nn(C)c2nc(Nc3cnn(C)c3)ncc12 [Example 152, N-(2-(cyclopentyl(2-fluoroethyl)amino)ethyl)-6-methyl-5-((1-methyl-6-((1-methyl-1H-pyrazol-4-yl)amino)-1H-pyrazolo[3,4-d]pyrimidin-3-yl)amino)nicotinamide]	3.4 nM	7.4 nM	2530 nM	0.45 nM
Cc1ncc(C(=O)NCCC2CCCCC2)cc1Nc1nn(C)c2nc(Nc3cncc(CC(=O)O)c3)ncc12 [Example 107, 2-(5-((3-((5-((2-cyclohexylethyl)carbamoyl)-2-methylpyridin-3-yl)amino)-1-methyl-1H-pyrazolo[3,4-d]pyrimidin-6-yl)amino)pyridin-3-yl)acetic acid]	2.8 nM	> 2000 nM	11 nM	0.55 nM
CC(=O)Nc1cc(Nc2ncc3c(Nc4cc(C(=O)NCCN5CCCC5(C)C)cnc4C)nn(C)c3n2)ccn1 [Example 100, 5-((6-((2-acetamidopyridin-4-yl)amino)-1-methyl-1H-pyrazolo[3,4-d]pyrimidin-3-yl)amino)-N-(2-(2,2-dimethylpyrrolidin-1-yl)ethyl)-6-methylnicotinamide]	2.8 nM	93.1 nM	5420 nM	0.39 nM
Cc1nn(C)cc1Nc1ncc2c(Nc3cc(C(=O)NCCN4CCC(C)(C)C4)cnc3C)nn(C)c2n1 [Example 159, 5-((6-((1,3-dimethyl-1H-pyrazol-4-yl)amino)-1-methyl-1H-pyrazolo[3,4-d]pyrimidin-3-yl)amino)-N-(2-(3,3-dimethylpyrrolidin-1-yl)ethyl)-6-methylnicotinamide]	13.3 nM	60.7 nM	> 7500 nM	1.5 nM
COCCn1cc(Nc2ncc3c(Nc4cc(NC(=O)CN5CCCC5(C)C)cnc4C)nn(C)c3n2)cn1 [Example 125, 2-(2,2-dimethylpyrrolidin-1-yl)-N-(5-((6-((1-(2-methoxyethyl)-1H-pyrazol-4-yl)amino)-1-methyl-1H-pyrazolo[3,4-d]pyrimidin-3-yl)amino)-6-methylpyridin-3-yl)acetamide]	1.7 nM	2.7 nM	> 7500 nM	0.34 nM
Cc1ncc(C(=O)NCCC2CCCCC2)cc1Nc1nn(C)c2nc(Nc3ccc(CC(=O)O)cc3)ncc12 [Example 104, 2-(4-((3-((5-((2-cyclohexylethyl)carbamoyl)-2-methylpyridin-3-yl)amino)-1-methyl-1H-pyrazolo[3,4-d]pyrimidin-6-yl)amino)phenyl)acetic acid]	2.4 nM	2360 nM	77.2 nM	0.44 nM
Cc1ncc(C(=O)NCCN2CCCC2(C)C)cc1Nc1nn(C)c2nc(Nc3cnn4c3OCCC4)ncc12 [Example 163, 5-((6-((6,7-dihydro-5H-pyrazolo[5,1-b][1,3]oxazin-3-yl)amino)-1-methyl-1H-pyrazolo[3,4-d]pyrimidin-3-yl)amino)-N-(2-(2,2-dimethylpyrrolidin-1-yl)ethyl)-6-methylnicotinamide]	805 nM	> 2000 nM	> 7500 nM	86.4 nM
COCCn1cc(Nc2ncc3c(Nc4cc(C(=O)NCCN5CCCC5(C)C)cnc4C)nn(C)c3n2)cn1 [Example 148, N-(2-(2,2-dimethylpyrrolidin-1-yl)ethyl)-5-((6-((1-(2-methoxyethyl)-1H-pyrazol-4-yl)amino)-1-methyl-1H-pyrazolo[3,4-d]pyrimidin-3-yl)amino)-6-methylnicotinamide]	4.3 nM	64.9 nM	> 7500 nM	0.74 nM
COC1CCN(CCNC(=O)c2cc(C)c(Nc3nn(C)c4nc(Nc5cnn(C)c5)ncc34)s2)CC1 [Example 49, N-(2-(4-methoxypiperidin-1-yl)ethyl)-4-methyl-5-((1-methyl-6-((1-methyl-1H-pyrazol-4-yl)amino)-1H-pyrazolo[3,4-d]pyrimidin-3-yl)amino)thiophene-2-carboxamide]	40.2 nM	105 nM	> 7500 nM	1.17 nM
COc1ncccc1Nc1ncc2c(Nc3cc(NC(=O)CN4CCC[C@@H]4C)cnc3C)nn(C)c2n1 [Example 146, (S)—N-(5-((6-((2-methoxypyridin-3-yl)amino)-1-methyl-1H-pyrazolo[3,4-d]pyrimidin-3-yl)amino)-6-methylpyridin-3-yl)-2-(2-methylpyrrolidin-1-yl)acetamide]	19.7 nM	14.1 nM	> 7500 nM	2.33 nM
COCCn1cc(Nc2ncc3c(Nc4cc(NC(=O)CN5CCCC56CCC6)cnc4C)nn(C)c3n2)cn1 [Example 132, N-(5-((6-((1-(2-methoxyethyl)-1H-pyrazol-4-yl)amino)-1-methyl-1H-pyrazolo[3,4-d]pyrimidin-3-yl)amino)-6-methylpyridin-3-yl)-2-(5-azaspiro[3.4]octan-5-yl)acetamide]	2 nM	3.2 nM	> 7500 nM	0.35 nM
Cc1ncc(NC(=O)CN2CCCC2(C)C)cc1Nc1nn(C)c2nc(Nc3cnn(C)c3)ncc12 [Example 70, 2-(2,2-dimethylpyrrolidin-1-yl)-N-(6-methyl-5-((1-methyl-6-((1-methyl-1H-pyrazol-4-yl)amino)-1H-pyrazolo[3,4-d]pyrimidin-3-yl)amino)pyridin-3-yl)acetamide]	1.8 nM	0.9 nM	6170 nM	0.2 nM
Cc1ncc(C(=O)NCCN2CC(C)CC(C)C2)cc1Nc1nn(C)c2nc(Nc3cnn(C)c3)ncc12 (stereo not drawn) [Example 87, N-(2-(3,5-dimethylpiperidin-1-yl)ethyl)-6-methyl-5-((1-methyl-6-((1-methyl-1H-pyrazol-4-yl)amino)-1H-pyrazolo[3,4-d]pyrimidin-3-yl)amino)nicotinamide]	2.3 nM	11.5 nM	> 7500 nM	0.29 nM
Cc1cc(Nc2ncc3c(Nc4cc(C(=O)NCCN5CCC[C@@H]5C)cnc4C)nn(C)c3n2)n(C)n1 [Example 158, (S)-5-((6-((1,3-dimethyl-1H-pyrazol-5-yl)amino)-1-methyl-1H-pyrazolo[3,4-d]pyrimidin-3-yl)amino)-6-methyl-N-(2-(2-methylpyrrolidin-1-yl)ethyl)nicotinamide]	22.3 nM	147 nM	> 7500 nM	2.63 nM
Cc1ncc(NC(=O)CN2CCCC2)cc1Nc1nn(C)c2nc(Nc3cnn(C)c3)ncc12 [Example 138, N-(6-methyl-5-((1-methyl-6-((1-methyl-1H-pyrazol-4-yl)amino)-1H-pyrazolo[3,4-d]pyrimidin-3-yl)amino)pyridin-3-yl)-2-(pyrrolidin-1-yl)acetamide]	2.1 nM	3.2 nM	> 7500 nM	0.24 nM
Cc1ncc(C(=O)NCCC2CCCCC2)cc1Nc1nn(C)c2nc(NCCC3CCCCC3)ncc12 [Example 108, N-(2-cyclohexylethyl)-5-((6-((2-cyclohexylethyl)amino)-1-methyl-1H-pyrazolo[3,4-d]pyrimidin-3-yl)amino)-6-methylnicotinamide]	> 3000 nM	2270 nM	> 7500 nM	172 nM
Cc1ncc(C(=O)NCCN2CCCC23CCC3)cc1Nc1nn(C)c2nc(Nc3cnn(C)c3)ncc12 [Example 151, N-(2-(5-azaspiro[3.4]octan-5-yl)ethyl)-6-methyl-5-((1-methyl-6-((1-methyl-1H-pyrazol-4-yl)amino)-1H-pyrazolo[3,4-d]pyrimidin-3-yl)amino)nicotinamide]	1.7 nM	4.8 nM	2960 nM	0.29 nM
Cc1ncc(C(=O)NCCN2CC3CCC2CC3)cc1Nc1nn(C)c2nc(Nc3cnn(C)c3)ncc12 [Example 85, N-(2-(2-azabicyclo[2.2.2]octan-2-yl)ethyl)-6-methyl-5-((1-methyl-6-((1-methyl-1H-pyrazol-4-yl)amino)-1H-pyrazolo[3,4-d]pyrimidin-3-yl)amino)nicotinamide]	1.7 nM	71.3 nM	6600 nM	0.27 nM
Cc1ncc(C(=O)NCCN2CC(C)(C)C2)cc1Nc1nn(C)c2nc(Nc3cncnc3)ncc12 [Example 55, N-(2-(3,3-dimethylazetidin-1-yl)ethyl)-6-methyl-5-((1-methyl-6-(pyrimidin-5-ylamino)-1H-pyrazolo[3,4-d]pyrimidin-3-yl)amino)nicotinamide]	9.5 nM	275 nM	> 7500 nM	0.55 nM
